Source: patent US6677354B2, “Piperdines for use as orexin receptor antagonists” (SmithKline Beecham p.l.c., priority 2000, dated 2004)

Legend:
[1] = test system: orexin receptors; test: Rat sleep/EEG studies after central administration; type: in vivo; conditions: central administration at the onset of the normal sleep period
Description: Therefore antagonists of its receptor may be useful in the treatment of sleep disorders including insomnia.

[2] = test system: food intake in freely-feeding rats; conditions: central administration, 4 hour time period; cited from earlier work

orexin-A: "orexin-A, an agonist of the orexin receptors"; "Human orexin-A has the amino acid sequence: pyroGlu Pro Leu Pro Asp Cys Cys Arg Gln Lys Thr Cys..."
effect on arousal and sleep [1]: dose-related increase in arousal | increase in food intake over control rats receiving vehicle [2]: approximately four-fold
